{"source": "patent US9975852B2", "about": "“Quinoline sulfonyl derivatives and uses thereof” (Health Sciences North Research Institute, priority 2013, dated 2018)", "key": {"[1]": {"tested_on": "MCF7 cells", "assay": "Flow cytometry, apoptosis of MCF7 cells", "type": "cell-based, human", "conditions": "VR-23 2.7 or 8.0 μM, 48 hours", "description": "Asynchronous MCF7 cells were incubated for 48 hours in the absence (Sham treated control) or presence of VR-23 at 2.7 or 8.0 μM. […] (Note the sub-G1 DNA profile that is typical for apoptotic cell death.) The profiles of flow cytometry are consistent with the cell images in the corresponding upper panels (FIG. 3)."}, "[2]": {"target": "T1, Chymotrypsin-like proteasome activity in HeLa S3 cell lysates (Homo sapiens, UniProt P28074)", "T1 construct": "proteasomes were extracted in 0.5% NP40 buffer; endogenous in cells; host or cells: HeLa S3", "assay": "Proteasome activity assay, chymotrypsin-like", "type": "biochemical", "conditions": "read-out: Inhibition (IC50) Chymotrypsin-like", "description": "(§1) Exponentially growing HeLa S3 cells were plated on 96-well plates. After overnight incubation, the cells were treated with different concentrations of drugs for 6 hours or left untreated (control). At the end of 6 hours, proteasomes were extracted in 0.5% NP40 buffer, and equal amounts of samples were incubated with 25 μM of fluorogenic substrates purchased from Boston Biochem (Cambridge Mass.). (LRR-specific for trypsin-like activity, LLE-specific for caspase-like activity and SUVY-specific for chymotrypsin like activity) in black-bottom 96-well plates at 37° C. Fluorescence was monitored every 5 min at the wavelength of 360 nm (excitation) and 480 nm (emission). Chymotrypsin activity was also determined by a kit-based method (similar to described above) purchased from Caymen Biochem (Ann Arbor, Mich.), using a fluorogenic substrate specific for chymotrypsin activity.\n(§2) Analysis of proteasome activity in HeLa S3 cell lysates treated with various compounds (FIG. 10). VR-23 inhibits proteasome activity. 20S proteasome activity was inhibited by 1 μM VR-23. MG132 and EGCG, known proteasome inhibitors, were used as positive controls. The PC positive control is cell lysates prepared from Jurkat cells with a high proteasome activity. “Asynchr” denote asynchronous HeLa S3 cells grown in the absence of VR-23."}, "[3]": {"target": "T2, Caspase-like proteasome activity in HeLa S3 cell lysates (Homo sapiens, UniProt P28072)", "T2 construct": "proteasomes were extracted in 0.5% NP40 buffer; endogenous in cells; host or cells: HeLa S3", "assay": "Proteasome activity assay, caspase-like", "type": "biochemical", "conditions": "read-out: Inhibition (IC50) Caspase-like", "description": "as §1, §2"}, "[4]": {"tested_on": "MCF7 cells", "assay": "Clonogenic assay using MCF7 cells", "type": "cell-based, human", "conditions": "for Average colony number: series with non-treated control 34", "description": "The clonogenic assay was carried out as described in Santi and Lee (2011).^11\nAntiproliferative activity of VR-23 was evaluated on a variety of different cell lines, alone or in combination with Bortezomib, by way of SRBSRB or clonogenic assays."}, "[5]": {"tested_on": "HeLa S3 cells", "assay": "Western blot, immunostaining and immunoprecipitation of cell cycle proteins, HeLa S3 cells", "type": "cell-based", "from_the_text": "All immunocytochemistry experiments were visualized by confocal microscopy using a Zeiss 510 Meta laser scanning microscope (Carl Zeiss) equipped with a 63× objective lens, unless otherwise specified herein. Three lasers were utilized for excitation with the following band pass filter settings used for detection: Argon 488 nm (band pass 505-530), HeNe 543 nm (long pass 560) and 633 nm (long pass 650). All images were captured and analyzed using LSM 510 software included with the microscope (LSM Image Examiner™, Carl Zeiss).\nThe synchronization at the G1/S border (more accurately at the beginning of S phase) was achieved by double thymidine block (DT). Briefly, exponentially growing cells are treated with 2.0 mM thymidine for 18 hours, followed by incubation for 11 hours in drug-free complete medium, by which time most cells are at mid-late G1 phase. The cells are then incubated for another 14 hours in 2.0 mM thymidine to arrest them at the G1/S border. To arrest cells at the G2/M phase, cells were maintained for 18 hours in complete medium containing nocodazole (50 ng/ml). Both these synchronization are reversible.\nUnder the experimental conditions, some of the cells were still stuck at G2/M until 8 hour post-drug treatment. “Asynchr” denotes asynchronous cells. 0 hour is the end of nocodazole treatment (i.e., 18 hours in 50 ng/ml nocodazole). At 0 hour, cells were released into complete medium in the absence (control) or presence of 5 μM VR-23 for 2, 4, or 8 hours as indicated. […] Extracts prepared from HeLa S3 cells treated with VR-23 in early-S phase (0 hour post double thymidine treatment), G2/M (arrested by nocodazole), or late G1 (6 hour post nocodazole) were subjected to Western blotting with anti-PARP1 antibody to detect proteins associated with apoptotic activities.\nEvaluation of apoptosis in VR-23 treated and untreated control cells (FIG. 8). Treatment of cells in late G1 with VR-23 delayed their progression into S phase. HeLa S3 cells arrested in G2-M phase by nocodazole (50 ng/ml, 18 hours) were incubated in drug-free complete medium for 2, 4 or 6 hours (numbers in brackets), followed by incubation for 2 or 6 hours (+h) in the absence (control) (FIG. 8A) or presence (FIG. 8B) of 10 μM VR-23. […] By (6)+6 hours, most of the control cells already progressed into S phase, but VR-23-treated cells were still in G1 (long and short arrows, respectively). […] Under normal growth conditions, cyclin E expression peaks in late G1 and rapidly levels off as a cell enters S phase, at which time cyclin A expression rapidly increases. […] Thus cells treated with VR-23 were still in G1 phase because cyclin E was not degraded and cyclin A was not induced in a timely manner.\nHeLa S3 cells arrested at G1/S by DT were released into cell cycle for 1-3 hours in the absence (control) (FIG. 16A) or presence (FIG. 16B) of VR-23. Cells were then fixed and immunostained with antibodies specific for γ-tubulin and cyclin E, or DNA stained. […] In contrast, cyclin E was localized to the centrosomes by 3 hour post-DT in cells exposed to VR-23 (see inset boxes of FIG. 16B). […] It is noted that proteasomes are localized to the centrosomes^12,13.\nHeLa S3 cells synchronized at the G1/S border by DT were released into cell cycle at time 0 hour. Cells were then allowed to progress through S phase for 1 hour (FIG. 17A) or 3 hours (FIG. 17B) in the absence (control) or presence of VR-23. Plk1 was not localized to the centrosome at 1 hour post-DT either in VR-23 treated or untreated control cells. However, unlike in the control, all of the (amplified) centrosomes in cells exposed to VR-23 contained Plk1 by 3 hour post-DT. It was occasionally observed that one of the two centrosomes in untreated cells also contained plk1 at 3 hour post-DT (dotted arrow).\nHeLa S3 cells synchronized at G1/S by DT were released into normal growth medium at 0 hour for 1-3 hours in absence (control) (FIG. 18A) or the presence (FIG. 18B) of VR-23. […]"}, "[6]": {"conditions": "10 μM VR-23 after nocodazole release"}, "[7]": {"conditions": "released from DT for 1-3 hours with VR-23"}}, "data": [{"smiles": "O=[N+]([O-])c1ccc(S(=O)(=O)N2CCN(c3ccnc4cc(Cl)ccc34)CC2)c([N+](=O)[O-])c1", "note": "[Compound 1, 7-Chloro-4-(4-(2,4-dinitrophenylsulfonyl)piperazin-1-yl)quinoline]", "values": [{"measurement": "Apoptosis (sub-G1 DNA profile)", "setting": "[1]", "value": "caused apoptosis"}, {"measurement": "IC50", "setting": "[2]", "value": 100, "unit": "nM"}, {"measurement": "IC50", "setting": "[3]", "value": 3000, "unit": "nM"}, {"measurement": "Survival (% of the control)", "setting": "[4]; 1.5 μM of VR-23 alone", "value": 50.3, "unit": "%"}, {"measurement": "Survival (% of the control)", "setting": "[4]; 3.1 μM of VR-23 alone", "value": 46.8, "unit": "%"}, {"measurement": "IC50", "setting": "[4]; Homo sapiens, MCF7, read-out: IC50 MCF7", "value": "1200 ± 500", "unit": "nM"}, {"measurement": "Average colony number", "setting": "[4]; VR-23 at 0.37 μM", "value": 25}, {"measurement": "Average colony number", "setting": "[4]; VR-23 at 0.75 μM", "value": 27}, {"measurement": "Levels of cyclins B and E", "setting": "[5]; 10 μM VR-23, 2 hour post-treatment", "value": "higher in the VR-23 treated cells than the control"}, {"measurement": "Levels of cyclin E and cyclin A (Western blot)", "setting": "[5]; 10 μM VR-23, (6)+6 hours", "value": "a high level of cyclin E and a lack of detectable cyclin A"}, {"measurement": "Cell cycle arrest (immunoprecipitation)", "setting": "[5]; [6]", "value": "caused cell cycle arrest prior to mitotic checkpoint"}, {"measurement": "Cell cycle arrest point and Cdk1 status", "setting": "[5]; [6]", "value": "arrested at prometaphase through the inactivation of Cdk1"}, {"measurement": "PARP1 cleavage (Western blot)", "setting": "[5]; VR-23 in early-S, G2/M or late G1", "value": "showed PARP1 cleavage"}, {"measurement": "Centrosomal localization of Plk4", "setting": "[5]; [7]", "value": "disrupted"}, {"measurement": "Cyclin E localization", "setting": "[5]; [7]", "value": "localized to the centrosome by 3 hour post-DT"}, {"measurement": "Plk1 localization", "setting": "[5]; released from DT for 1 or 3 hours with VR-23", "value": "localized to the centrosome by 3 hour post-DT"}]}]}
